Columns and labels:
[1] = Stability of [^225Ac(macropa)]^+ in human serum (radio-TLC); assay type: in vitro ADME
Description: […]. [^225Ac(macropa)]^+ and [^225Ac(DOTA)]^− were prepared using 10^−5 M and 10^−3 M stock solutions (10 μL) of macropa and DOTA, respectively, to give final ligand concentrations of 5.9×10^−7 M (macropa) and 5.9×10^−5 M (DOTA). After confirming a radiochemical yield of >90% by TLC using 0.4 M sodium citrate (pH 4) containing 10% MeOH as the mobile phase, 160 μL of human serum (an equal volume based on labeling reaction volume) were added to each radiolabeled solution. A control solution was also prepared in which water was substituted for ligand. The solutions were monitored over the course of 8 days by iTLC. The plates were developed with EDTA (50 mM, pH 5) as the eluent. Under these conditions, [^225Ac(macropa)]^+ and [^225Ac(DOTA)]^− complexes remained at the baseline (RF=0) and any ^225Ac (^225Ac-EDTA) that had been transchelated by serum migrated with the solvent front (RF=1). Percent of complex remaining intact was calculated.
The long half-life of ^225Ac necessitates its stable complex retention in vivo to avoid off-target damage to normal tissues arising from the release of free ^225Ac^3+. Furthermore, the stability of ^225Ac complexes against transmetalation and transchelation needs to be high. To determine the kinetic inertness, [^225Ac(macropa)]^+ was challenged with La^3+ because of the established high affinity of macropa for this metal ion. […]

[2] = Kinetic inertness of ^225Ac complex: transmetalation challenge with La^3+; assay type: physicochemical; conditions: 50-fold excess of La^3+, macropa 0.59 μM, RT, over 7 days
Description: General. Stock solutions of La(NO3)3 (0.001 M or 0.1 M) were prepared in H2O. To the radiolabeled samples containing macropa (10 μL of 10^−5 M stock; 1.0×10^−10 moles) or DOTA (10 μL of 10^−3 M stock; 1.0×10^−8 moles) and ^225Ac (10 μL, 26 kBq) in NH4OAc buffer (pH 6, 0.15 M, 150 μL), a 50-fold mole excess of La^3+ was added (5 μL of 0.001 M or 0.1 M stock were added to solutions containing macropa and DOTA, respectively). The solutions were kept at room temperature and analyzed by iTLC at several time points over the course of 8 days. The iTLC plates were developed using citric acid (0.05 M, pH 5) as the eluent. Under these conditions, [^225Ac(macropa)]^+ and [^225Ac(DOTA)]^− remained at the baseline (RF=0) and any unchelated ^225Ac (^225Ac-citrate) migrated with the solvent front (RF=1). Percent of complex remaining intact was calculated by integrating area under the peaks on the radiochromatogram and dividing the counts associated with the ^225Ac-complex (RF=0) by the total counts integrated along the length of the iTLC plate.
The long half-life of ^225Ac necessitates its stable complex retention in vivo to avoid off-target damage to normal tissues arising from the release of free ^225Ac^3+. Furthermore, the stability of ^225Ac complexes against transmetalation and transchelation needs to be high. […]

O=C([O-])c1cccc(CN2CCOCCOCCN(Cc3cccc(C(=O)[O-])n3)CCOCCOCC2)n1.[225Ac+3] [[^225Ac(macropa)]^+]
time ^225Ac^3+ remains complexed in human serum [1]: at least 8 days | ^225Ac complex remaining intact [2]: 98%
